Data taken from PMC8152588 (RSC Medicinal Chemistry, 2021).
Where two headings read alike, the source gives them in different places.

Columns and labels:
[1] = system: NRK (normal rat kidney epithelial) cells; test: Cytotoxicity; type: cell-based; details: for Selectivity towards leukemic cells compared with NRK cells (factor): MOLM-13 vs NRK; for EC50: ±SEM
MOLM-13 human AML cells = details: ref Viktorsson et al.[26], cited from earlier work
Solubility observation = type: physicochemical; details: cell media / DMSO
[2] = read-out: EC50 (μM) MOLM-13 2% O2, 2% O2, ±SEM
[3] = read-out: EC50 (μM) MOLM-13 19% O2, 19% O2, ±SEM
[4] = read-out: EC50 (μM) NRK 2% O2, 2% O2, 24 h exposure
[5] = read-out: EC50 (μM) NRK 19% O2, 19% O2, 24 h exposure

| SMILES | EC50 (MOLM-13 human AML cells; [2]) [µM] | EC50 (MOLM-13 human AML cells; [3]) [µM] | EC50 [1, 4] [µM] | also measured |
| --- | --- | --- | --- | --- |
| COc1cccc2c1[n+]([O-])c1cccc(O)c1[n+]2[O-] [Compound 4, 1-hydroxy-6-methoxyphenazine 5,10-dioxide] | 0.77 ± 0.13 | 1.4 ± 0.3 |  | Selectivity towards leukemic cells compared with NRK cells (factor) ([1]; hypoxic conditions (2% O2)): around 100 |
| [O-][n+]1c2cccc(O)c2[n+]([O-])c2cccc(O)c21 [Compound 3, 1,6-dihydroxyphenazine 5,10-dioxide] | 0.79 ± 0.1 | 2 ± 0.07 | > 50 |  |
| [O-][n+]1c2ccccc2[n+]([O-])c2c(O)cccc21 [Compound 21, 1-Hydroxyphenazine 5,10-dioxide] |  |  | > 100 |  |
| Nc1n[n+]([O-])c2ccccc2[n+]1[O-] [Compound 10, 3-amino-1,2,4-benzotriazine 1,4-dioxide] | 22 ± 2 | 95 ± 8 |  | EC50 [1, 5]: > 100 µM |
| CCOC(=O)Oc1cccc2c1[n+]([O-])c1cccc(OC(=O)OCC)c1[n+]2[O-] [Compound 14] |  |  | > 25 |  |
| Cc1cc2c(cc1C)[n+]([O-])c1c(O)cccc1[n+]2[O-] [Compound 44, 7,8-Dimethyl-1-hydroxyphenazine 5,10-dioxide] |  |  | > 50 |  |
| [O-][n+]1c2cc3ccccc3cc2[n+]([O-])c2c(O)cccc21 [Compound 45] |  |  |  | Solubility (Solubility observation): practically insoluble |
| CCOC(=O)COc1cccc2c1[n+]([O-])c1cc(C)c(C)cc1[n+]2[O-] [Compound 48] |  |  | > 100 | EC50 [1, 5]: 140 ± 2 µM |
| CN1CCN(C(=O)Oc2cccc3c2[n+]([O-])c2cc(Cl)c(Cl)cc2[n+]3[O-])CC1 [Compound 54] |  |  |  | Selectivity towards leukemic cells compared with NRK cells (factor) ([1]; 19% O2): more than 30 |
| CCOC(=O)COc1cccc2c1[n+]([O-])c1cccc(O)c1[n+]2[O-] [Compound 7, 1-hydroxy-6-(2-ethoxy-2-oxoethoxy) phenazine 5,10-dioxide] | 0.49 ± 0.12 | 0.57 ± 0.06 |  |  |
